Data published in publication PMC6260619, “Selective Cytotoxicity of Goniothalamin against Hepatoblastoma HepG2 Cells” (Molecules, 2011).
Several values for one entry are separate records, joined by “and”; a condition that tells them apart may be missing. Identical values can stand only once.

Key:
HepG2 cells [1] = experiment: MTT cytotoxicity assay, HepG2; type: cell-based, human; details: for IC50: read-out: IC50 from MTT
Experimental: HepG2 and Chang cells were plated at 1 × 10^4 cells/well by adding 200 μL of a 5 × 10^4 cells/mL suspension to each well of a 96-well tissue culture plate. The plate was incubated for a sufficient time to assure attachment and 40% to 60% confluency. […] The last row was left as an untreated control. The plates were incubated at 37 °C, 5% CO2, for 24, 48 and 72 hours, respectively. After incubation with compounds, the media was aspirated off and replaced with fresh media. Then, MTT solution (20 μL) for a total volume of 200 μL was added in every well and incubated for 4 to 6 hours at 37 °C with 5% CO2. After that, MTT-containing medium was removed gently and replaced with DMSO (200 μL per well) to mix the formazan crystals until dissolved. The plates were read on microtiter plate reader at 570 nm. For each compound tested, the IC50 (concentration of drug needed to inhibit cell growth by 50%) is generated from the dose-response curves for each cell line.

Chang cells [2] = experiment: BrdU cell proliferation ELISA, Chang; type: cell-based, human
Experimental: The inhibition of goniothalamin on cellular DNA synthesis in Chang cells was also measured by BrdU incorporation.
(§1) To confirm anti-proliferative effects in goniothalamin-treated cells, BrdU cell proliferation kit was used. HepG2 and Chang cells were seeded at 1.5 × 10^5 cells/mL in a final volume of 100 μL in a 96-well culture dish and incubated overnight to allow the cells to adhere to the dish. Each sample was assayed in triplicate. Besides, the control samples include a blank (no cells) and background (cells without BrdU) was also prepared. […] Then, BrdU label (20 μL, diluted by 1/2,000 in media) was added to each well and incubated for 24 h at 37 °C. The media was discarded and replaced by fix/denaturing solution (200 μL). The plate was incubated for 30 min at room temperature. The fix/denaturing solution was removed by inverting the plate. Then, BrdU antibody (100 μL, diluted by 1/100 in dilution buffer) was added to each well and left for 1 hour at room temperature. The cells were washed 3 times with wash buffer. After that, secondary antibody (100 μL, anti-mouse IgG HRP conjugated) was added to each well for 30 min. The washing step was done three times with wash buffer and once with distilled water. The distilled water was removed and substrate solution (100 μL) was added to each well. The plate was left for 15 min at room temperature in the dark condition. Finally, stop solution (100 μL) was added to the wells and absorbance measured at 450–540 nm.

HepG2 cells [3] = experiment: LDH leakage assay, HepG2; type: cell-based, human; details: for IC50: Homo sapiens, read-out: IC50 from LDH
Experimental: Measurement of LDH activity is another indicator of cell viability through evaluation of the cell membrane permeability. The enzyme activity is measured externally, as it leaks from dead cells which lose their membrane integrity. LDH leakage detection is based on the loss of NADH due to its oxidation to NAD^+, resulting in the conversion of pyruvate to lactate. Untreated cells should retain LDH in their cells and have minimal loss over the time of the assay. Triton X-100-treated cells that give the maximum loss of LDH were used as the positive control in this assay.
To determine the effect of goniothalamin on membrane permeability in HepG2 and Chang cell lines, a lactate dehydrogenase (LDH) release assay was used. The cells were seeded in 96-well culture plates at a density of 2 × 10^4 cells/well in 100 μL volume and allowed to grow for 18 hours before treatment. After treatment, the plates were incubated for 24, 48 and 72 hours, respectively. Then, the supernatant (40 μL) was transferred to a new 96 well to determine LDH release and 6% triton X-100 (40 μL) was added to the original plate for determination of total LDH. An aliquot of 0.1 M potassium phosphate buffer (100 μL, pH 7.5) containing 4.6 mM pyruvic acid was mixed to the supernatant using repeated pipetting. Then, 0.1 M potassium phosphate buffer (100 μL, pH 7.5) containing 0.4 mg/mL reduced β-NADH was added to the wells. The kinetic changes were read for 1 min using ELISA microplate reader in absorbance at wavelength 340 nm. This procedure was repeated with 40 μL of the total cell lysate to determine total LDH U/well. A change of 0.001 absorbance units/min is equivalent to 1 U/L of LDH activity. The percentage of LDH release was determined by dividing the LDH released into the media by the total LDH following cell lysis in the same well.

HepG2 cells [4] = experiment: BrdU cell proliferation ELISA, HepG2; type: cell-based, human
Experimental: To further confirm the potential of goniothalamin-induced cell death HepG2 cells, a BrdU cell proliferation assay was performed. The cell proliferation percentage was measured by the incorporation of the thymidine analogue bromodeoxyuridine into DNA. In untreated HepG2, the absorbances (OD) at 450 nm wavelength were 1.445, 2.188 and 2.553 for 24, 48 and 72 hours, respectively. The cell proliferation rate was reduced in a concentration dependent manner after the addition of goniothalamin, compared to untreated control cells after all the times (Figure 3). […] Inhibition of DNA synthesis at the highest concentration (150 µM) is also time-dependent and is the most severe.
as §1

Chang cells [5] = experiment: Trypan blue dye exclusion viable cell count, Chang; type: cell-based
Experimental: As supported by MTT and LDH results, goniothalamin inhibited cell proliferation towards HepG2 in a time- and dose-dependent manner as shown in the BrdU incorporation ELISA method. The effects of goniothalamin on HepG2 and Chang cell growth were also analyzed by viable cell counts using trypan blue dye exclusion assay for 24, 48 and 72 hours after treatment with different doses of goniothalamin. […] The ratio between viable cell numbers in goniothalamin-treated cells and control cells was reported as the Viablity Index (VI, Figure 5A and Figure 5B).
A half mL aliquot of cell suspension (obtained from treated and non-treated HepG2 and Chang cells), was mixed with 0.5 mL of 0.4% trypan blue dye and left for 5 min at room temperature). The cells were counted using the hemacytometer and the percentage of dead cells was determined.

For `O=C1C=CC[C@H](/C=C/c2ccccc2)O1` [Goniothalamin, 5-hydroxy-7-phenylhepta-2,6-dienoic acid lactone], the IC50 (HepG2 cells [1]; HepG2, 72 hours) was 4.6 µM and 4.63 µM, the IC50 (HepG2 cells [1]; Homo sapiens, HepG2, 24 h) was 9.2 µM and the IC50 (HepG2 cells [1]; Homo sapiens, HepG2, 48 h) was 8.3 µM. The “selectivity index (SI)” value (HepG2 cells [1]; IC50 for normal cell line (Chang)/IC50 for cancerous cell line (HepG2), MTT, 72 hours) was 7.6, the “IC50-GTN / IC50-Doxo” value (HepG2 cells [1]; MTT, 72 hours, value fits HepG2 IC50s) was 4.4 and the “percentage of cells incorporating BrdU in comparison with untreated cells” value (Chang cells [2]; IC50, 24 hours) was 62.4%. The “percentage of cells incorporating BrdU in comparison with untreated cells” value (Chang cells [2]; IC50, 72 hours) was 23.5%, the “decrease in cell proliferation compared to untreated cells (BrdU)” value (Chang cells [2]; lowest concentration (2.3 µM), 72 hours) was 2% and the “cell proliferation retained (BrdU)” value (Chang cells [2]; lowest concentration (2.3 µL as printed), 72 hours) was 97.6%. The “death percentage compared to Triton X-100-treated cells” value (HepG2 cells [3]; HepG2, 4.6 µM, 72 hours) was 50%, the LDH leakage (HepG2 cells [3]; HepG2, 9.4 µM, 72 hours, relative to Triton X-100 maximum) was 62% and the LDH leakage (HepG2 cells [3]; HepG2, 37.5 µM, 24 hours) was 60%. For the same compound, the LDH leakage (HepG2 cells [3]; HepG2, 37.5 µM, 48 hours) was 70%, the LDH leakage (HepG2 cells [3]; HepG2, 37.5 µM, 72 hours) was 70% and the LDH leakage (HepG2 cells [3]; HepG2, 150 µM, 24 hours) was 80%. It also gave an LDH leakage (HepG2 cells [3]; HepG2, 150 µM, 48 hours) of 86%, an LDH leakage (HepG2 cells [3]; HepG2, 150 µM, 72 hours) of 93% and an IC50 (HepG2 cells [3]; HepG2, 24 hours) of 13.4 µM. For the same compound, the IC50 (HepG2 cells [3]; HepG2, 48 hours) was 8.29 µM, the IC50 (HepG2 cells [3]; HepG2, 72 hours) was 5.2 µM and the “OD value at 450 nm (BrdU incorporation)” value (HepG2 cells [4]; HepG2, IC50 concentration, 24 hours, untreated 1.445) was 0.635. The “OD value at 450 nm (BrdU incorporation)” value (HepG2 cells [4]; HepG2, IC50 concentration, 72 hours, untreated 2.553) was 0.372, the “cell proliferation as compared to control (BrdU)” value (HepG2 cells [4]; HepG2, lowest concentration (2.3 µL as printed), 72 hours) was 19.8% and the “OD value at 450 nm (BrdU incorporation)” value (HepG2 cells [4]; HepG2, lowest concentration, 72 hours, untreated 2.553) was 0.505. The “Viability Index” value (Chang cells [5]; at IC50, 72 hours) was 62 ± 4.36% and the “cytotoxicity (cell count, trypan blue)” value (Chang cells [5]; doses comparable to 2.3 µM) was “no obvious cytotoxicity”.
